Assays:
[1] = tested on: ORYSAT (Rice, Tebonnet); assay: Postemergence herbicidal evaluation; type: in vivo, Oryza sativa, (L.) Tebonnet; conditions: for ORYSAT herbicidal rating: postemergence
Summary of the method: (§1)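 Visual 0-9 injury score (stand, vigor, malformation, size, chlorosis, appearance vs untreated) taken four to five weeks post-spray, averaged across repeat tests. Test plants about two weeks old; foliar spray of acetone/water (1:1) with 0.5% surfactant delivering ~0.0156-0.500 kg active/ha.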

[2] = tested on: CYPSE (Flatsedge); assay: Postemergence weed control under flooded paddy conditions; type: in vivo, Cyperus serotinus; conditions: postemergence weeds, 3-4 weeks after treatment
Summary of the method: (§2)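 Herbicidal effect is judged by eye on a 0–9 scale versus control, 3–4 weeks after dosing. Dosing is into flood water kept 1.5–3 cm over the soil, at about 0.0313–0.500 kg/ha in aqueous/acetone 50/50 v/v, on 3–5 cm weeds and 1.5–2.5-leaf rice seedlings.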

[3] = tested on: CHEAL (Lambsquarters, Common); assay: Postemergence herbicidal evaluation; type: in vivo, Chenopodium album; conditions: for CHEAL herbicidal rating: postemergence
Summary of the method: as §1

[4] = tested on: TRZAWR (Wheat, Winter, cv Riband); assay: Postemergence herbicidal evaluation; type: in vivo, Triticum aestivum; conditions: for TRZAWR herbicidal rating: postemergence
Summary of the method: as §1

[5] = tested on: CYPIR (Rice Flatsedge); assay: Preemergence weed control under flooded paddy conditions; type: in vivo, Cyperus iria; conditions: rated 3-4 weeks after treatment
Summary of the method: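 Visual injury scored 0-9 against control three to four weeks post-treatment, greenhouse-grown. Application: acetone/water (50/50) solutions dosed directly into flood water (1.5-3 cm over silt loam, planted top 0.5 cm), roughly 0.0313 to 0.500 kg/ha active ingredient.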

[6] = tested on: AMBEL (Ragweed, Common); assay: Preemergence herbicidal evaluation; type: in vivo, Ambrosia artemisifolia; conditions: rated 4-5 weeks after treatment
Summary of the method: (§3)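 Visual 0-9 rating vs control (stand, vigor, malformation, size, chlorosis, overall appearance), scored 4-5 wk after spraying. Seeded soil cups were treated preemergence with compound in aqueous acetone, ~0.0156-0.500 kg/ha equivalent.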

[7] = tested on: SAGPY (Arrowhead (Pygmaea)); assay: Postemergence weed control under flooded paddy conditions; type: in vivo, Sagittaria pygmaea; conditions: postemergence weeds, 3-4 weeks after treatment
Text: Results of herbicide evaluation are expressed on a rating scale (0-9). The scale is based upon a visual observation of plant stand, vigor, malformation, size, chlorosis and overall plant appearance as compared with a control.
Plastic containers containing weeds which are 3 to 5 cm tall and rice seedlings at the 1.5 to 2.5 leaf stage are flooded with water. The water is maintained at 1.5 to 3 cm above the soil surface for the duration of the experiment. Test compounds are applied as aqueous/ acetone mixtures 50/50 v/v directly into the flood water to provide the equivalent of about 0.0313 to 0.500 kg/ha of active ingredient. The treated containers are placed on greenhouse benches and cared for in accordance with conventional greenhouse procedures. Three to four weeks after treatment, the test is terminated and each container is examined and herbicidal effect rated according to the rating system provided in Example 37. The compounds evaluated are reported by compound number given in Example 37.

[8] = tested on: SETVI (Foxtail, Green); assay: Preemergence herbicidal evaluation; type: in vivo, Setaria viridis; conditions: rated 4-5 weeks after treatment
Summary of the method: as §3

[9] = tested on: SETVI (Foxtail, Green); assay: Postemergence herbicidal evaluation; type: in vivo, Setaria viridis; conditions: for SETVI herbicidal rating: postemergence
Summary of the method: as §1

[10] = tested on: ABUTH (Velvetleaf); assay: Postemergence herbicidal evaluation; type: in vivo, Abutilon theophrasti; conditions: for ABUTH herbicidal rating: postemergence
Summary of the method: as §1

[11] = tested on: ECHORC (Watergrass (Calif.)); assay: Postemergence weed control under flooded paddy conditions; type: in vivo, Echinochloa oryzoides; conditions: postemergence weeds, 3-4 weeks after treatment
Summary of the method: as §2

[12] = tested on: ZEAMX (Corn, Field); assay: Postemergence herbicidal evaluation; type: in vivo, Zea mays; conditions: for ZEAMX herbicidal rating: postemergence
Summary of the method: as §1

[13] = tested on: GLXMAW (Soybean, Williams); assay: Postemergence herbicidal evaluation; type: in vivo, Glycine max, (L.) Merr. cv Williams
Summary of the method: as §1

[14] = tested on: GALAP (Galium); assay: Preemergence herbicidal evaluation; type: in vivo, Galium aparine; conditions: rated 4-5 weeks after treatment
Summary of the method: as §3

CN1C(=O)C(F)SC1=Nc1cc(N2C(=O)C3=C(CCCC3)C2=O)c(F)cc1Cl (stereo not drawn) [Compound 5, N-{4-chloro-2-fluoro-5-[(5-fluoro-3-methyl-4-oxo-2-thiazolidinylidene)amino]phenyl}-1-cyclohexene-1,2-dicarboximide]
9.0: CHEAL herbicidal rating ([3]; rate 0.1250 kg/ha) | CHEAL herbicidal rating ([3]; rate 0.5000 kg/ha) | SETVI preemergence herbicidal rating ([8]; rate 0.5000 kg/ha) | ABUTH herbicidal rating ([10]; rate 0.0625 kg/ha) | ABUTH herbicidal rating ([10]; rate 0.1250 kg/ha) | ABUTH herbicidal rating ([10]; rate 0.2500 kg/ha) | ABUTH herbicidal rating ([10]; rate 0.5000 kg/ha)
1.0: ABUTH herbicidal rating ([10]; rate 0.0157 kg/ha) | Herbicidal rating ECHORC ([11]; rate 0.2500 kg/ha)
6.0: CHEAL herbicidal rating ([3]; rate 0.0625 kg/ha) | SETVI preemergence herbicidal rating ([8]; rate 0.2500 kg/ha)
1.5: ORYSAT herbicidal rating ([1]; rate 0.0157 kg/ha) | ORYSAT herbicidal rating ([1]; rate 0.0313 kg/ha)
4.0: SETVI herbicidal rating ([9]; rate 0.1250 kg/ha) | SETVI herbicidal rating ([9]; rate 0.5000 kg/ha) | ZEAMX herbicidal rating ([12]; rate 0.0625 kg/ha) | ZEAMX herbicidal rating ([12]; rate 0.2500 kg/ha)
3.0: TRZAWR herbicidal rating ([4]; rate 0.0157 kg/ha) | TRZAWR herbicidal rating ([4]; rate 0.0313 kg/ha)
0.0: Herbicidal rating CYPSE ([2]; rate 0.1250 kg/ha) | Herbicidal rating CYPSE ([2]; rate 0.2500 kg/ha) | Herbicidal rating CYPIR ([5]; 0.1250 kg/ha) | Herbicidal rating CYPIR ([5]; 0.2500 kg/ha) | Herbicidal rating CYPIR ([5]; 0.5000 kg/ha) | AMBEL preemergence herbicidal rating ([6]; rate 0.0625 kg/ha) | AMBEL preemergence herbicidal rating ([6]; rate 0.1250 kg/ha) | AMBEL preemergence herbicidal rating ([6]; rate 0.2500 kg/ha) | AMBEL preemergence herbicidal rating ([6]; rate 0.5000 kg/ha) | Herbicidal rating SAGPY ([7]; rate 0.1250 kg/ha) | Herbicidal rating SAGPY ([7]; rate 0.2500 kg/ha) | Herbicidal rating SAGPY ([7]; rate 0.5000 kg/ha) | SETVI preemergence herbicidal rating ([8]; rate 0.0625 kg/ha) | SETVI herbicidal rating ([9]; rate 0.0157 kg/ha) | SETVI herbicidal rating ([9]; rate 0.0313 kg/ha)
8.0: CHEAL herbicidal rating ([3]; rate 0.2500 kg/ha) | SETVI herbicidal rating ([9]; rate 0.2500 kg/ha)
4.5: TRZAWR herbicidal rating ([4]; rate 0.1250 kg/ha) | TRZAWR herbicidal rating ([4]; rate 0.5000 kg/ha)
2.5: ORYSAT herbicidal rating ([1]; rate 0.0625 kg/ha) | ORYSAT herbicidal rating ([1]; rate 0.1250 kg/ha) | ORYSAT herbicidal rating ([1]; rate 0.2500 kg/ha) | ORYSAT herbicidal rating ([1]; rate 0.5000 kg/ha)
3.5: TRZAWR herbicidal rating ([4]; rate 0.0625 kg/ha) | ZEAMX herbicidal rating ([12]; rate 0.0157 kg/ha) | ZEAMX herbicidal rating ([12]; rate 0.0313 kg/ha) | ZEAMX herbicidal rating ([12]; rate 0.1250 kg/ha) | ZEAMX herbicidal rating ([12]; rate 0.5000 kg/ha)
2.0: CHEAL herbicidal rating ([3]; rate 0.0157 kg/ha) | CHEAL herbicidal rating ([3]; rate 0.0313 kg/ha) | SETVI preemergence herbicidal rating ([8]; rate 0.1250 kg/ha) | SETVI herbicidal rating ([9]; rate 0.0625 kg/ha) | ABUTH herbicidal rating ([10]; rate 0.0313 kg/ha) | Herbicidal rating ECHORC ([11]; rate 0.5000 kg/ha)
0.5: Herbicidal rating CYPSE ([2]; rate 0.5000 kg/ha) | Herbicidal rating ECHORC ([11]; rate 0.1250 kg/ha)
5.0: TRZAWR herbicidal rating ([4]; rate 0.2500 kg/ha)

C=CCN1C(=O)C(CC(=O)Nc2ccccc2)SC1=Nc1cc(-n2c(=O)cc(C(F)(F)F)n(C)c2=O)c(F)cc1Cl (stereo not drawn) [Compound 44, 3-Allyl-2-{{2-chloro-5-[3,6-dihydro-3-methyl-2,6-dioxo-4-(trifluoromethyl)-1(2H)-pyrimidinyl]-4-fluorophenyl}imino}-4-oxo-5-thiazolidineacetanilide]
5.5: Postemergence herbicidal rating GLXMAW ([13]; Rate 0.0625 kg/ha)
1.0: Postemergence herbicidal rating CHEAL ([3]; Rate 0.0156 kg/ha) | Preemergence herbicidal rating GALAP ([14]; rate 0.0156 kg/ha) | Preemergence herbicidal rating GALAP ([14]; rate 0.0313 kg/ha) | Preemergence herbicidal rating GALAP ([14]; rate 0.0625 kg/ha)
6.0: Herbicidal rating CYPIR ([5]; 0.0625 kg/ha) | Herbicidal rating CYPIR ([5]; 0.1250 kg/ha) | Postemergence herbicidal rating GLXMAW ([13]; Rate 0.1250 kg/ha) | Herbicidal rating ECHORC ([11]; rate 0.0313 kg/ha) | Herbicidal rating ECHORC ([11]; rate 0.0625 kg/ha)
4.5: Postemergence herbicidal rating GLXMAW ([13]; Rate 0.0156 kg/ha)
9.0: Postemergence herbicidal rating CHEAL ([3]; Rate 0.1250 kg/ha) | Herbicidal rating CYPIR ([5]; 0.2500 kg/ha) | Preemergence herbicidal rating GALAP ([14]; rate 0.1250 kg/ha) | Preemergence herbicidal rating GALAP ([14]; rate 0.2500 kg/ha) | Preemergence herbicidal rating GALAP ([14]; rate 0.5000 kg/ha) | Postemergence herbicidal rating ABUTH ([10]; Rate 0.0156 kg/ha) | Postemergence herbicidal rating ABUTH ([10]; Rate 0.0625 kg/ha) | Postemergence herbicidal rating ABUTH ([10]; Rate 0.1250 kg/ha)
8.0: Herbicidal rating ECHORC ([11]; rate 0.2500 kg/ha)
0.0: Herbicidal rating CYPSE ([2]; rate 0.0313 kg/ha) | Herbicidal rating CYPSE ([2]; rate 0.0625 kg/ha) | Herbicidal rating CYPSE ([2]; rate 0.1250 kg/ha) | Herbicidal rating CYPSE ([2]; rate 0.2500 kg/ha) | Preemergence herbicidal rating AMBEL ([6]; rate 0.0156 kg/ha) | Preemergence herbicidal rating AMBEL ([6]; rate 0.0313 kg/ha) | Preemergence herbicidal rating AMBEL ([6]; rate 0.0625 kg/ha) | Preemergence herbicidal rating AMBEL ([6]; rate 0.1250 kg/ha) | Preemergence herbicidal rating SETVI ([8]; rate 0.0156 kg/ha) | Preemergence herbicidal rating SETVI ([8]; rate 0.0313 kg/ha) | Preemergence herbicidal rating SETVI ([8]; rate 0.0625 kg/ha) | Preemergence herbicidal rating SETVI ([8]; rate 0.1250 kg/ha) | Preemergence herbicidal rating SETVI ([8]; rate 0.2500 kg/ha) | Preemergence herbicidal rating SETVI ([8]; rate 0.5000 kg/ha) | Postemergence herbicidal rating SETVI ([9]; Rate 0.0156 kg/ha) | Postemergence herbicidal rating SETVI ([9]; Rate 0.0313 kg/ha)
4.0: Postemergence herbicidal rating ORYSAT ([1]; Rate 0.0313 kg/ha) | Postemergence herbicidal rating ORYSAT ([1]; Rate 0.0625 kg/ha) | Postemergence herbicidal rating ORYSAT ([1]; Rate 0.1250 kg/ha) | Postemergence herbicidal rating CHEAL ([3]; Rate 0.0313 kg/ha) | Postemergence herbicidal rating TRZAWR ([4]; Rate 0.0313 kg/ha) | Postemergence herbicidal rating TRZAWR ([4]; Rate 0.0625 kg/ha) | Postemergence herbicidal rating TRZAWR ([4]; Rate 0.1250 kg/ha) | Preemergence herbicidal rating AMBEL ([6]; rate 0.5000 kg/ha)
3.0: Postemergence herbicidal rating ORYSAT ([1]; Rate 0.0156 kg/ha) | Postemergence herbicidal rating TRZAWR ([4]; Rate 0.0156 kg/ha)
7.0: Postemergence herbicidal rating ABUTH ([10]; Rate 0.0313 kg/ha) | Herbicidal rating ECHORC ([11]; rate 0.1250 kg/ha)
2.0: Preemergence herbicidal rating AMBEL ([6]; rate 0.2500 kg/ha) | Postemergence herbicidal rating SETVI ([9]; Rate 0.0625 kg/ha) | Postemergence herbicidal rating SETVI ([9]; Rate 0.1250 kg/ha)
5.0: Postemergence herbicidal rating CHEAL ([3]; Rate 0.0625 kg/ha) | Herbicidal rating CYPIR ([5]; 0.0313 kg/ha) | Postemergence herbicidal rating GLXMAW ([13]; Rate 0.0313 kg/ha) | Postemergence herbicidal rating ZEAMX ([12]; Rate 0.0156 kg/ha) | Postemergence herbicidal rating ZEAMX ([12]; Rate 0.0313 kg/ha) | Postemergence herbicidal rating ZEAMX ([12]; Rate 0.0625 kg/ha) | Postemergence herbicidal rating ZEAMX ([12]; Rate 0.1250 kg/ha)

Reference: patent US20020137929A1, “1 - (3-heterocyclylphenyl) isothiourea, -isourea, -guanidine and -amidine herbicidal agents” (Intellectual Property Department, BASF Aktiengesellschaft, priority 1998, published 2002)
